What was measured:
[1] = target: Protein arginine N-methyltransferase 3 (Homo sapiens, UniProt O60678); experiment: Inhibition of PRMT3 (unknown origin) incubated for 15 mins measured after 60 min by AlphaLISA assay
[2] = target: Protein arginine N-methyltransferase 1 (Homo sapiens, UniProt Q99873); experiment: Inhibition of PRMT1 (unknown origin) incubated for 15 mins measured after 60 min by AlphaLISA assay
[3] = system: BT-549; experiment: Antiproliferative activity against human BT-549 cells assessed as cell growth inhibition incubated for 6 days by SRB assay; assay type: functional, cell-based; conditions: BT-549, 144 h
[4] = system: A-375; experiment: Antiproliferative activity against human A-375 cells assessed as cell growth inhibition incubated for 6 days by SRB assay; assay type: functional, cell-based; conditions: A-375, 144 h
[5] = target: Protein arginine N-methyltransferase 6 (Homo sapiens, UniProt Q96LA8); experiment: Inhibition of PRMT6 (unknown origin) incubated for 15 mins measured after 60 min by AlphaLISA assay
Chain of Protein arginine N-methyltransferase 6 (Q96LA8 whole entry): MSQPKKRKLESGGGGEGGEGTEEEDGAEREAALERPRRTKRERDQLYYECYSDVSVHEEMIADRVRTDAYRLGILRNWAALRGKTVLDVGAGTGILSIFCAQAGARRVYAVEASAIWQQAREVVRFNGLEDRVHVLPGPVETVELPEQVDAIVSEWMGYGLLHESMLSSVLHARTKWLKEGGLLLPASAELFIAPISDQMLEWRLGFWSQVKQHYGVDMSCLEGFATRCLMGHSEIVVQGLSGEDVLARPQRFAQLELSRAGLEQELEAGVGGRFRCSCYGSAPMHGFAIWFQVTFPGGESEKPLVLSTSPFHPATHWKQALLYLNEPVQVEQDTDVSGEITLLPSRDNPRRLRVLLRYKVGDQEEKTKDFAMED

[6] = target: Protein arginine N-methyltransferase 8 (Homo sapiens, UniProt Q9NR22); experiment: Inhibition of PRMT8 (unknown origin) incubated for 15 mins measured after 60 min by AlphaLISA assay
Chain of Protein arginine N-methyltransferase 8 (Q9NR22 whole entry): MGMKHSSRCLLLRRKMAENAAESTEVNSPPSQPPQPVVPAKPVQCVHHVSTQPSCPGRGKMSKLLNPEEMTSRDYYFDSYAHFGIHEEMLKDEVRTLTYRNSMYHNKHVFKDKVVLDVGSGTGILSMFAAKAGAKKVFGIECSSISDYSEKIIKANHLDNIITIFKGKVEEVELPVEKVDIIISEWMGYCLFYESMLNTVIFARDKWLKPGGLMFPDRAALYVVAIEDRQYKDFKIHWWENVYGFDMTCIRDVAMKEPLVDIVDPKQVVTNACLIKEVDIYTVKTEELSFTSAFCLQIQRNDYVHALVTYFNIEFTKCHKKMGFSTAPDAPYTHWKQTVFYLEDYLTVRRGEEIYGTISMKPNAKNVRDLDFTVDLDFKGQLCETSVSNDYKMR

[7] = target: Protein arginine N-methyltransferase 5 (Homo sapiens, UniProt O14744); experiment: Inhibition of PRMT5 (unknown origin) incubated for 15 mins measured after 60 min by AlphaLISA assay
Chain of Protein arginine N-methyltransferase 5 (O14744 whole entry): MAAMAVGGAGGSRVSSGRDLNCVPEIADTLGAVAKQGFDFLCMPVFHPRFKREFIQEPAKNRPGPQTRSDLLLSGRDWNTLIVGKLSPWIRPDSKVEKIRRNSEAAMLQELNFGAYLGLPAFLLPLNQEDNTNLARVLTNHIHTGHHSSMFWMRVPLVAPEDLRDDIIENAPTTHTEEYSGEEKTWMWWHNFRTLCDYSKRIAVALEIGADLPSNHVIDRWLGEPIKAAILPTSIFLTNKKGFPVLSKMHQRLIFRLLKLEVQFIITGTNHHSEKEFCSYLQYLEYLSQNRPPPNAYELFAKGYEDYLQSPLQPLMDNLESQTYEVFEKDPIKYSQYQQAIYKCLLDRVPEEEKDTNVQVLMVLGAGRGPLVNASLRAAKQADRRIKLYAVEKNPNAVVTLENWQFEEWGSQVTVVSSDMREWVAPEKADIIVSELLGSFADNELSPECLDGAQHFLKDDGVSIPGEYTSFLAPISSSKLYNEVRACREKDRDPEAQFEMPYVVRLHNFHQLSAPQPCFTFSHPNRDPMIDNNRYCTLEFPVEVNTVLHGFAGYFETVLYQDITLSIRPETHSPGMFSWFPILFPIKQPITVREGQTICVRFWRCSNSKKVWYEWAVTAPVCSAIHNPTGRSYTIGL

[8] = target: T1, Protein arginine N-methyltransferase 7 (Homo sapiens, UniProt Q9NVM4); experiment: Inhibition of PRMT7 (unknown origin) by radioisotope based assay
T1 sequence (Q9NVM4 whole entry): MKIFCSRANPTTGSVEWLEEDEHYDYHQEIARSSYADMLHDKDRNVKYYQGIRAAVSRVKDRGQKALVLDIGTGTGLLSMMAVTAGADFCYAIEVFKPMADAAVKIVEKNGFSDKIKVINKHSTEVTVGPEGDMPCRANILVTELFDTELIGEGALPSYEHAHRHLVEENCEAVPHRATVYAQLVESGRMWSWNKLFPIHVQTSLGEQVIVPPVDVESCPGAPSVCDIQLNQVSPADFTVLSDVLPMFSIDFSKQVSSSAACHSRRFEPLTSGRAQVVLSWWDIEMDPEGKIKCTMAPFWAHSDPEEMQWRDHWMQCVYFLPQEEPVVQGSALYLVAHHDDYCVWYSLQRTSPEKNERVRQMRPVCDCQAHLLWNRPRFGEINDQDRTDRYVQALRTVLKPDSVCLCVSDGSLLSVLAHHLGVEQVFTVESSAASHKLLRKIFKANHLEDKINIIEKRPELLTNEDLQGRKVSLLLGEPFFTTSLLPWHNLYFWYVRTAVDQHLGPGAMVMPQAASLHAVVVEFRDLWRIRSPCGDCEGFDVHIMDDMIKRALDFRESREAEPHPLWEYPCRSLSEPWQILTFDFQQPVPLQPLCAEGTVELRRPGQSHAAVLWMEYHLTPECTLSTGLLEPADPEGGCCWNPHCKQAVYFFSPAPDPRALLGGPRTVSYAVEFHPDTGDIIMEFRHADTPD

[9] = system: MDA-MB-453; experiment: Antiproliferative activity against human MDA-MB-453 cells assessed as cell growth inhibition incubated for 6 days by SRB assay; assay type: functional, cell-based; conditions: MDA-MB-453, 144 h
[10] = system: SMMC-7721; experiment: Antiproliferative activity against human SMMC-7721 cells assessed as cell growth inhibition incubated for 6 days by SRB assay; assay type: functional, cell-based; conditions: SMMC-7721, 144 h
[11] = system: ASPC1; experiment: Antiproliferative activity against human ASPC1 cells assessed as cell growth inhibition incubated for 6 days by SRB assay; assay type: functional, cell-based; conditions: ASPC1, 144 h
[12] = system: BT-549; experiment: Induction of apoptosis in human BT-549 cells at 15 uM measured after 96 hrs by Annexin V-FITC/PI staining based flow cytometric analysis (reference value: 9.7 %); assay type: functional
[13] = system: A-375; experiment: Induction of apoptosis in human A-375 cells at 15 uM measured after 96 hrs by Annexin V-FITC/PI staining based flow cytometric analysis (reference value: 5.6 %); assay type: functional
[14] = system: ASPC1; experiment: Induction of apoptosis in human ASPC1 cells at 15 uM measured after 96 hrs by Annexin V-FITC/PI staining based flow cytometric analysis (reference value: 6.1 %); assay type: functional
[15] = system: BT-549; experiment: Antitumor activity against human BT-549 cells xenografted in po dosed nude mouse assessed as tumor growth inhibition at 75 mg/kg administered once daily measured after 18 days relative to control; assay type: functional; conditions: BT-549, 432 h, time 18 day, read-out: TGI
[16] = system: BT-549; experiment: Antitumor activity against human BT-549 cells xenografted in po dosed nude mouse assessed as tumor growth inhibition at 125 mg/kg administered once daily measured after 18 days relative to control; assay type: functional; conditions: BT-549, 432 h, time 18 day, read-out: TGI
[17] = system: A-375; experiment: Antitumor activity against human A-375 cells xenografted in po dosed nude mouse assessed as tumor growth inhibition at 100 mg/kg administered once daily measured after 21 days relative to control; assay type: functional; conditions: A-375, 504 h, time 21 day, read-out: TGI
[18] = system: MC-38; experiment: Antitumor activity against mouse MC38 cells implanted in po dosed BALB/c nude mouse assessed as tumor growth inhibition at 100 mg/kg administered once daily measured after 18 days relative to control; assay type: functional; conditions: MC-38, 432 h, time 18 day, read-out: TGI
[19] = system: MC-38; experiment: Antitumor activity against mouse MC38 cells implanted in po dosed C57BL/6J mouse assessed as tumor growth inhibition at 100 mg/kg administered once daily measured after 32 days relative to control; assay type: functional; conditions: MC-38, 768 h, time 32 day, read-out: TGI
[20] = Toxicity in po dosed nude mouse xenografted with human BT-549 cells assessed as change in body weight at 75 to 125 mg/kg administered once daily measured after 18 days; assay type: organism-based; conditions: in vivo, 432 h, dose 75-125 mg/kg, time 18 day
[21] = Toxicity in po dosed nude mouse xenografted with human A-375 cells assessed as change in body weight at 100 mg/kg administered once daily measured after 21 days; assay type: organism-based; conditions: in vivo, 504 h, time 21 day

Chain of Protein arginine N-methyltransferase 1 (Q99873 whole entry): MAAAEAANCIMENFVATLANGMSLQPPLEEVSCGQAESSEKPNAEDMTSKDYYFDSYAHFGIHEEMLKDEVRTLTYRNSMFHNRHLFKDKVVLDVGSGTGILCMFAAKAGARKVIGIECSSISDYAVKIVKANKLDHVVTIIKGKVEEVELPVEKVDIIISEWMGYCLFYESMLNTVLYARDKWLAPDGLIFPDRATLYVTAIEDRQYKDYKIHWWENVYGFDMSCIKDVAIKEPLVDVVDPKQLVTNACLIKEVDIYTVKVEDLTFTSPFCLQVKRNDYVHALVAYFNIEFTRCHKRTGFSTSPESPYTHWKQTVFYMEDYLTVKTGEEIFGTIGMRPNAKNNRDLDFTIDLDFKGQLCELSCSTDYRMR
Chain of Protein arginine N-methyltransferase 3 (O60678 whole entry): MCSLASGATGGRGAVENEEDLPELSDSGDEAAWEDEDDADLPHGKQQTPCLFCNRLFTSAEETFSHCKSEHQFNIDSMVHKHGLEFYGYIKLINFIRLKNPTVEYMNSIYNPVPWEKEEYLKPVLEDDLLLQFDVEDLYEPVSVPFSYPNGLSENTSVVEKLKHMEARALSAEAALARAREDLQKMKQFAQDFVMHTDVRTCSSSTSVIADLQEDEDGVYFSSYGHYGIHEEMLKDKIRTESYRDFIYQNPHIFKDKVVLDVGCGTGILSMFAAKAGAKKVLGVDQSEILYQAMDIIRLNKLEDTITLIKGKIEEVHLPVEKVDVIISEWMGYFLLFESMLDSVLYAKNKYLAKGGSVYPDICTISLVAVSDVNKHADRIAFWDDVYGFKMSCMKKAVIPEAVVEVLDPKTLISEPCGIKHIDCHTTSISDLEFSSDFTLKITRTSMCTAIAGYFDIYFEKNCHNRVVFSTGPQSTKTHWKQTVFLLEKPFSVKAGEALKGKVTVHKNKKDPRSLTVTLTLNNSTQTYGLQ

## CNCCNCc1cccc(-c2nc(Nc3ccccc3)c(C)c(-c3c(C)noc3C)n2)c1
[1]
  IC50: > 1 µM
[2]
  IC50: > 1 µM
[3]
  IC50: 8.8 µM
[4]
  IC50: 5.9 µM
[5]
  IC50: 0.49 µM
[6]
  IC50: 0.92 µM
[7]
  IC50: > 50 µM
[8]
  IC50: > 50 µM
[9]
  IC50: 5.7 µM
[10]
  IC50: 5.5 µM
[11]
  IC50: 12.3 µM
[12]
  Activity: 46.1%
[13]
  Activity: 44%
[14]
  Activity: 17.2%
[15]
  inhibition in vivo at 75 mg/kg: 38%
[16]
  inhibition in vivo at 125 mg/kg: 61.5%
[17]
  inhibition in vivo at 100 mg/kg: 69%
[18]
  inhibition in vivo at 100 mg/kg: 23.3%
[19]
  inhibition in vivo at 100 mg/kg: 79.6%
[20]
  Activity: Non-Toxic
[21]
  Activity: Non-Toxic

— ChEMBL document CHEMBL5236560, “Structure-Based Discovery of Potent CARM1 Inhibitors for Solid Tumor and Cancer Immunology Therapy” (J Med Chem, 2021)
